Assay results published in publication PMC4770311, “Discovery and Characterization of GSK2801, a Selective Chemical Probe for the Bromodomains BAZ2A and BAZ2B” (Journal of Medicinal Chemistry, 2015).

Assays:
BRD4 = system: BRD4; set-up: method as in PMID 21804994, PMID 22136404; settings: reported activity; read-out: TR-FRET assay: BRD4; cited from earlier work
BRD2 = system: BRD2; set-up: method as in PMID 21804994, PMID 22136404; settings: reported activity; read-out: TR-FRET assay: BRD2; cited from earlier work
BAZ2A = target: T1, BAZ2A (Homo sapiens, UniProt Q9UIF9); assay: AlphaScreen assay BAZ2A; assay type: binding; settings: average of three replicates ± SEM
T1 construct: Recombinant BAZ2A and BAZ2B bromodomains were expressed in; made in house; host or cells: E. coli
T1 sequence (Q9UIF9 1793-1897 limits assumed): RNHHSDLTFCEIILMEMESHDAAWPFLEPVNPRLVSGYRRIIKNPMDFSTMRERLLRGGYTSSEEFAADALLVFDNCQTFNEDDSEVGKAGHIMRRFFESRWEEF
Experimental: AlphaScreen: AlphaScreen was performed as described previously 10, with minor modifications from the manufacturers protocol (PerkinElmer, USA). Briefly, all reagents were diluted in the recommended buffer (50 mM HEPES, 100 mM NaCl, 0.1% BSA; pH = 7.4) supplemented with 0.05% CHAPS and allowed to equilibrate to room temperature prior to […]
Plates were sealed and incubated at room temperature for 30 min. 4 μL of streptavidin-coated donor beads (10ug/mL final) and 4 μL of nickel chelate acceptor beads (10 μg/ml final) were then added under low light conditions. Plates were foil sealed to protect from light, incubated at room temperature for 60 min and read on a PHERAstar FS plate reader (BMG Labtech, Germany) using an AlphaScreen 680 excitation/570 emission filter set.
Fragments were dissolved in ethylene glycol to overcome sensitivity of the bromodomain assay to DMSO and allow compounds to be screened at mM concentrations. IC50 […]
measurements were taken over a 12 point 1:2 serial dilution of compound. IC50s were calculated in GraphPad Prism 5 (GraphPad Software, USA). […]

For CC(=O)c1cc(-c2ccccn2)c2ccccn12 [Compound 1], the IC50 (BRD4) is listed as 2000 nM, the IC50 (BRD2) is listed as 2000 nM and the IC50 (BAZ2A) is listed as 1500 ± 60 nM.
